Our source for the IC50, Drug uptake and Activity values is ChEMBL document CHEMBL4814003, “Novel dual-mode antitumor chlorin-based derivatives as potent photosensitizers and histone deacetylase inhibitors for photodynamic therapy and chemotherapy” (Eur J Med Chem, 2021).

Where only a bound is given, the exact number is not on record here.

Series [1] relates to A549. Nature of the series: Dark toxicity in human A549 cells assessed as reduction in cell viability incubated under dark for 48 hrs measured after 48 hrs by CCK8 assay. The series is classed as functional, cell-based. The following applies: A549, 48 h.
The nature of series [2]: Drug uptake in human A549 cells assessed as compound localization in mitochondria at 0.1 uM measured after 24 hrs by Mitotracker Green FM based laser confocal microscopy. Conditions: a549, 24 h; call rule not given here. The series is classed as ADME.
For series [3], the system named is A549. Nature of the series: Induction of apoptosis in human A549 cells assessed as necrotic cells at 0.5 uM in absence of light irradiation incubated for 48 hrs by annexin V-FITC staining based flow cytometry. The series is classed as functional. On the technique in general: A flow cytometer gives signals particle by particle.
Series [4] addresses Histone deacetylase 1 (Homo sapiens, UniProt Q13547). Nature of the series: Inhibition of human recombinant HDAC1 using Ac-Leu-Gly-Lys(Ac)-AMC as substrate by measuring fluorescence intensity incubated for 30 mins by microplate reader assay.
For series [5], the target named is T1, Histone deacetylase 8 (Homo sapiens, UniProt Q9BY41).
T1 sequence (Q9BY41 whole entry): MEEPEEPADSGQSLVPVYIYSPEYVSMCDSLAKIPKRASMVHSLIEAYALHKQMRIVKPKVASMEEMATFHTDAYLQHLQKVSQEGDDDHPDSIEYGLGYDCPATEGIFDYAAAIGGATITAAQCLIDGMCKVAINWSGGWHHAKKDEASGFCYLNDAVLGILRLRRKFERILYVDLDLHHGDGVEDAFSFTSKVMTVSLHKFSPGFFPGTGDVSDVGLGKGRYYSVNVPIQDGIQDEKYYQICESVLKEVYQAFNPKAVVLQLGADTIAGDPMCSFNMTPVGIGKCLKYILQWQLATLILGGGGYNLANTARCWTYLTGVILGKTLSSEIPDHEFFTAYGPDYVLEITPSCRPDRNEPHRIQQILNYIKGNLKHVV
Kind of series: Inhibition of human recombinant HDAC8 using Ac-Leu-Gly-Lys(Ac)-AMC as substrate by measuring fluorescence intensity incubated for 30 mins by microplate reader assay.

In series [6] the test system is A549. Kind of series: Induction of reactive oxygen species generation in human A549 cells assessed as mean count value at 0.05 uM incubated for 24 hrs by DCFH-DA staining based fluorescence microscopy assay. The series is classed as functional.
The subject of series [7] is A549. Kind of series: Induction of apoptosis in human A549 cells assessed as apoptotic cells at 0.1 uM in presence of light irradiation incubated for 48 hrs by annexin V-FITC staining based flow cytometry. The series is classed as functional.
The subject of series [8] is A549. Nature of the series: Phototoxicity in human A549 cells assessed as reduction in cell viability irradiated 10 j/cm2 for 24 hrs followed by incubated for 24 hrs by CCK8 assay. The series is classed as functional, cell-based. Conditions: A549, light or radiation study. For orientation: Formazan colour is commonly taken as a measure of viable cells.
The target in series [9] is T2, Polyamine deacetylase HDAC10 (Homo sapiens, UniProt Q969S8).
T2 sequence (Q969S8 whole entry): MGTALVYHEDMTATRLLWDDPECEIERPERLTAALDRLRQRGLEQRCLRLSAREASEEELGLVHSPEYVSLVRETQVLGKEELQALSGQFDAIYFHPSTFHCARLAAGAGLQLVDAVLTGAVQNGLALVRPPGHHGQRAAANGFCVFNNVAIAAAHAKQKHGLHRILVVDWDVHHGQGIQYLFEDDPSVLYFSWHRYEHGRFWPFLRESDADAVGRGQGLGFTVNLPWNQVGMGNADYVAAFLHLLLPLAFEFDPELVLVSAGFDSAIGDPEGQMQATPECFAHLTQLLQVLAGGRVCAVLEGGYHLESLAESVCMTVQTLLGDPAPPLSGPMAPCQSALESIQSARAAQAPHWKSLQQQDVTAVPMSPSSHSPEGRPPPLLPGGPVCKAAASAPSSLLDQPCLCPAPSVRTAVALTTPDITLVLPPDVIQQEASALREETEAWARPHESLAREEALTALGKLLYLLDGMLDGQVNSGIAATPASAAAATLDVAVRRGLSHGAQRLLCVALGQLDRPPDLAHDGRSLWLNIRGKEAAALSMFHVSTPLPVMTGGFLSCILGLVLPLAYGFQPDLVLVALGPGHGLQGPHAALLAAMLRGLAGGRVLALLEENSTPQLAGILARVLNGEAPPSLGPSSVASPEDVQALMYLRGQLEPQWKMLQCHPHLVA
Nature of the series: Inhibition of human recombinant HDAC10 using Ac-Leu-Gly-Lys(Ac)-AMC as substrate by measuring fluorescence intensity incubated for 30 mins by microplate reader assay.

Histone deacetylase 1, sequence (Q13547 whole entry): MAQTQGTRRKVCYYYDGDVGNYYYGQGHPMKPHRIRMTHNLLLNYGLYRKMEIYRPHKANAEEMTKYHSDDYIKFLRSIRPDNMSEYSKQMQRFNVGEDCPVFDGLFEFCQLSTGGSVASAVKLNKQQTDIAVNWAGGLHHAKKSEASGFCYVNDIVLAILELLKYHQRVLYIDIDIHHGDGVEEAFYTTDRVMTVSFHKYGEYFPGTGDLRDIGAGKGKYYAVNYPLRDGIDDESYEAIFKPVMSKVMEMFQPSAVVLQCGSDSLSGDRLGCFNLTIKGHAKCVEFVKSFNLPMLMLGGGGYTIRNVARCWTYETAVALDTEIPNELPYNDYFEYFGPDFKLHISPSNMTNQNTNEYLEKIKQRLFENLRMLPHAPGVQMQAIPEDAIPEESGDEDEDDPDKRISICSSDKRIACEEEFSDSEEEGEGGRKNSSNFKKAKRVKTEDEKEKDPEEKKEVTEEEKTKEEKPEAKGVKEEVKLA

The term IC50 denotes the concentration that inhibits the measured activity by half. Regarding `C=Cc1c(C)c2cc3nc(c(C(=O)OC)c4[nH]c(cc5nc(cc1[nH]2)C(C)=C5CC)c(C)c4C(=O)OC)[C@@H](CCC(=O)Nc1ccc(C(=O)Nc2ccccc2N)cc1)[C@@H]3C`, the IC50 was 0.3 µM in series [1]; 27 µM in series [4]; more than 100 µM in [5]; 0.06 µM in [8]; more than 100 µM in series [9]. For the same compound, the Drug uptake result in series [2] is “Active”. Also, the Activity is 45.22% in series [3], 1760.9 in [6] and 90.77% in series [7].
